Where a name gives a salt, the structure may show the parent alone. Read-outs that look alike come from different tables or passages of the source.
What was measured:
[1] = system: B. mandrillaris trophozoites; experiment: Nitroxoline structure-activity relationship dose response (CellTiter Glo); assay type: cell-based, Balamuthia mandrillaris; conditions: for IC50: 72 h; for activity against B. mandrillaris: SAR experiments
[2] = system: B. mandrillaris trophozoites; experiment: microbe, parasite or virus in culture; assay type: cell-based, Balamuthia mandrillaris; conditions: for inhibition at 20 µM: Balamuthia mandrillaris; for % Inhibition: 20 µM
[3] = system: H4 human neuroglioma cells; experiment: Secondary screening dose response, toxicity to H4 cells; assay type: cell-based; conditions: 72 h, approximated from dose-response curves
[4] = system: HFF-1 human fibroblast cells; experiment: Secondary screening dose response, toxicity to HFF-1 cells; assay type: cell-based; conditions: 72 h, approximated from dose-response curves, read-out: HFF1 IC50
Experimental: (§2) Secondary screening of hit compounds consisted of dose-response experiments to measure the toxicity of each compound to B. mandrillaris trophozoites, HFF-1 human fibroblast cells, and H4 human neuroglioma cells. Four 384-well plates were prepared prior to addition of drug as follows: one opaque plate (Corning) seeded with 3,000 HFF-1 cells per well in 60 µl complete media, one opaque plate seeded with 2,000 H4 cells per well in 60 µl complete media, one opaque plate containing 30 µl axenic media, and one clear plate (Corning) containing 30 µl axenic media. Opaque plates were used to measure the viability of trophozoites in the CTG assay, and clear plates were used for microscopic examination of cyst formation. HFF-1 and H4 plates were seeded 24 h prior to drug addition. The selected primary screen hits were added from 10 mM DMSO stocks into wells of all four test plates to reach final concentrations ranging from 0.06 µM to 30 µM (10 concentrations, 2-fold serial dilution). Negative-control wells received concentrations of DMSO corresponding to the amount of DMSO in each tested drug well (reaching a maximum of 0.3% DMSO). B. mandrillaris trophozoites were resuspended in axenic media and added to the plates containing drug dilutions in axenic media at a density of 3,000 amoebae per well in a final volume of 60 µl media. All plates were incubated for 72 h. Throughout the incubation period, the clear-bottom B. mandrillaris plate was monitored for large-scale changes to population encystment in response to drug treatment. After the 72-h incubation, 30 µl of CTG reagent was added to all wells of the opaque assay plates and luminescence was measured with a Promega GloMax-Multi+ plate reader at 2, 4, and 8 h after CTG addition.

[5] = system: B. mandrillaris trophozoites; experiment: Secondary screening dose response, B. mandrillaris trophozoites; assay type: cell-based, Balamuthia mandrillaris; conditions: 72 h, read-out: B. mandrillaris IC50
Experimental: as §2

[6] = system: B. mandrillaris; parameters: method as in PMID 15347743, PMID 23869955, PMID 16579814; conditions: in vitro; cited from earlier work
[7] = system: B. mandrillaris cysts; experiment: Dose response, viability of preformed galactose-induced cysts; assay type: cell-based, Balamuthia mandrillaris; conditions: Balamuthia mandrillaris, 72 h, preformed cysts, 12% galactose induction medium, read-out: IC50, B. mandrillaris cysts
Experimental: Following the findings of a previous study, encystment of B. mandrillaris was induced by galactose exposure ([74]). B. mandrillaris trophozoites were grown to log phase in axenic media, and galactose was added to reach a final concentration of 12% (vol/vol). Amoebae were cultured in the induction medium until trophozoites were no longer observed (approximately 10 days). Galactose-induced cysts transition back to trophozoites after approximately 3 days of incubation in galactose-free axenic medium. Therefore, all assays with cysts were completed in the induction medium. […] All incubation steps for B. mandrillaris growth were carried out at 37°C with 5% CO2.
(§1) B. mandrillaris trophozoites were seeded at 4,000 amoebae per well into opaque and clear-bottom 96-well plates (Corning). Homogenous populations of B. mandrillaris cysts generated by galactose induction were seeded at 4,000 amoebae per well into opaque 96-well plates. HFF-1 (fibroblast), H4 (glial), U87 (glial), HEK-293T (kidney), and Hep-G2 (liver) cells were seeded at 3,000 cells per well in opaque 96-well plates 24 h prior to addition of drug. Stocks of nitroxoline (Selleck Chemicals) were dissolved in 100% DMSO at 10 mM. Stocks of azithromycin (Selleck Chemicals), pentamidine isethionate (Selleck Chemicals), and miltefosine (Selleck Chemicals) were dissolved in water at 10 mM. Drug stocks were serially diluted in water to generate 12-point dilution series, which were then used to treat assay wells containing B. mandrillaris or human cells at final concentrations ranging from 0.39 µM to 400 µM in 100-µl total well volumes. Control wells were treated with vehicle (DMSO or water) at concentrations corresponding to the final vehicle concentrations in each drug dilution series. After incubation for 72 h, 50 µl of CTG was added to all assay wells. Luminescence was measured with a Promega GloMax-Multi+ plate reader 2, 4, and […] after CTG addition. All dose-response experiments were performed with at least three independent biological replicates. IC50 values were determined as previously described. To quantify encystment under treated and untreated conditions, amoebae in individual assay wells were resuspended thoroughly and the number of cysts and number of trophozoites in 10-µl samples were counted by the use of a hemocytometer (SKC, Inc.). Cysts and trophozoites are morphologically distinct, making them simple to distinguish with bright-field microscopy (example images are shown in Fig. S1 in the supplemental material). Encystment assays were performed with three independent biological replicates.

[8] = Cytotoxicity, mean of all cell lines; assay type: cell-based; conditions: human, U87, H4, HEK-293T, HFF-1 and Hep-G2 cell lines (mean of all), unit inferred
Experimental: as §1

[9] = Cytotoxicity dose response, HFF-1; assay type: cell-based; conditions: human, HFF-1 (fibroblast) cells, unit not given in Table S3, drug concentrations in µM, read-out: CC50 HFF-1 cell line
Experimental: as §1

[10] = Cytotoxicity dose response, H4; assay type: cell-based; conditions: human, H4 (glial) cells, unit not given in Table S3, drug concentrations in µM, read-out: CC50 H4 cell line
Experimental: as §1

[11] = system: B. mandrillaris trophozoites; experiment: Side-by-side dose response, trophozoite viability; assay type: cell-based, Balamuthia mandrillaris; conditions: Balamuthia mandrillaris, 72 h, read-out: IC50, B. mandrillaris trophozoites, 72 h
Experimental: as §1

[12] = Cytotoxicity dose response, HEK-293T; assay type: cell-based; conditions: human, HEK-293T (kidney) cells, unit not given in Table S3, drug concentrations in µM, read-out: CC50 HEK-293T cell line
Experimental: as §1

[13] = Cytotoxicity dose response, U87; assay type: cell-based; conditions: human, U87 (glial) cells, unit not given in Table S3, drug concentrations in µM, read-out: CC50 U87 cell line
Experimental: as §1

[14] = system: B. mandrillaris; experiment: Encystment assay, counts of cysts and trophozoites; assay type: cell-based, Balamuthia mandrillaris; conditions: 72 h of treatment with different drug concentrations
Experimental: as §1

[15] = Cytotoxicity dose response, Hep-G2; assay type: cell-based; conditions: human, Hep-G2 (liver) cells, unit not given in Table S3, drug concentrations in µM, read-out: CC50 Hep-G2 cell line
Experimental: as §1

[16] = Balamuthia mandrillaris, 8-point dose response in triplicate, read-out: IC50
[17] = Balamuthia mandrillaris, 8-point dose response in triplicate
[18] = 72 h, relative to positive and negative controls
[19] = 8-point dose response in triplicate, read-out: IC50

## O=C(O)c1ccc2ccccc2n1 [compound 18, 2-Quinolinecarboxylic acid]
[1]; Balamuthia mandrillaris
  IC50: 884 µM

## CC#C[C@]1(O)CC[C@H]2[C@@H]3CCC4=CC(=O)CCC4=C3[C@@H](c3ccc(N(C)C)cc3)C[C@@]21C [Mifepristone]
[2]; 72 h
  inhibition at 20 µM: 43%
[3]; Homo sapiens
  IC50: > 30 µM
[4]; Homo sapiens, HFF-1
  IC50: > 30 µM
[5]; Balamuthia mandrillaris
  IC50: > 30 µM

## Nc1[nH]c(=O)ncc1F [flucytosine]
[6]
  inhibition of amoebic growth: little to no inhibition

## Oc1ccc(Br)c2cccnc12 [compound 6, 5-Bromo-8-hydroxyquinoline]
[1]; [16]
  IC50: 48.9 µM

## Cc1c(NC(=O)c2cccnc2)c(=O)n(-c2ccccc2)n1C [Nifenazone]
[2]; 72 h
  inhibition at 20 µM: 70%
[3]; Homo sapiens
  IC50: > 30 µM
[4]; Homo sapiens, HFF-1
  IC50: > 30 µM
[5]; Balamuthia mandrillaris
  IC50: > 30 µM

## O=C(O)c1ccccc1-c1c2cc(I)c(=O)c(I)c-2oc2c(I)c(O)c(I)cc12 [Erythrosine Sodium]
[2]; 72 h
  inhibition at 20 µM: 66%

## O=S(=O)(O)c1ccc(O)c2ncccc12 [compound 13, 8-Hydroxy-5-quinolinesulfonic acid]
[1]; 8-point dose response in triplicate, listed as 8-Hydroxy-5-quinolinesulfonic acid [13]
  IC50: 338 µM
[1]; [17]
  IC50: 338 µM
[1]
  activity against B. mandrillaris: inactive

## COCc1c(C(C)C)nc(C(C)C)c(/C=C/[C@@H](O)C[C@@H](O)CC(=O)O)c1-c1ccc(F)cc1 [Cerivastatin, Cerivastatin Na, Cerivastatin]
[2]; 72 h
  inhibition at 20 µM: 66%
[3]; Homo sapiens
  IC50: 0.2 µM
[4]; Homo sapiens, HFF-1
  IC50: < 0.06 µM
[5]; Balamuthia mandrillaris
  IC50: 9 µM

## CC(=O)[O][Hg][c]1ccccc1 [Phenylmercuric Acetate]
[2]; [18]
  % Inhibition: 107%

## CCOc1ccc([N+](=O)[O-])c2cccnc12 [compound 17, 8-Ethoxy-5-nitroquinoline]
[1]; [19]
  IC50: 434 µM

## CC[n+]1c(-c2ccccc2)c2cc(N)ccc2c2ccc(N)cc21 [Homidium Bromide]
[2]; 72 h
  inhibition at 20 µM: 44%

## NC(=O)NO [Hydroxyurea]
[2]
  % Inhibition: 44%

## CCCCCCCCCCCCCCCC[N+](C)(C)C [Cetrimonium]
[2]; 72 h
  inhibition at 20 µM: 56%

## [O-][n+]1cccc2cccc(O)c21 [compound 16, 8-Quinolinol N-oxide]
[1]; [19]
  IC50: 165 µM

## NC(=O)c1ccc[n+]([C@@H]2O[C@H](COP(=O)([O-])OP(=O)(O)OC[C@H]3O[C@@H](n4cnc5c(N)ncnc54)[C@H](O)[C@@H]3O)[C@@H](O)[C@H]2O)c1 [Nadide]
[2]; 72 h
  inhibition at 20 µM: 87%

## CN(C)c1ccc(C(=C2C=CC(=[N+](C)C)C=C2)c2ccc(N(C)C)cc2)cc1 [Gentian Violet]
[2]; 72 h
  inhibition at 20 µM: 62%

## Nc1ccc(S(=O)(=O)Nc2ncccn2)cc1 [sulfadiazine]
[6]
  inhibition of amoebic growth: little to no inhibition

## N=C(N)c1ccc(/N=N/Nc2ccc(C(=N)N)cc2)cc1 [Diminazene]
[2]; 72 h
  inhibition at 20 µM: 46%

## C[C@@H](c1ncncc1F)[C@](O)(Cn1cncn1)c1ccc(F)cc1F [voriconazole]
[6]
  inhibition of amoebic growth: amoebicidal or amoebistatic activity

## C=C1C[C@@H]2[C@H](CC[C@]3(C)C(=O)CC[C@@H]23)[C@@]2(C)C=CC(=O)C=C12 [Exemestane]
[2]; 72 h
  inhibition at 20 µM: 47%
[3]; Homo sapiens
  IC50: > 30 µM
[4]; Homo sapiens, HFF-1
  IC50: > 30 µM
[5]; Balamuthia mandrillaris
  IC50: > 30 µM

## CCCCC(CC)CNC(=N)NC(=N)NCCCCCCNC(=N)NC(=N)NCC(CC)CCCC (centres unmarked) [Alexidine Hydrochloride]
[2]; 72 h
  inhibition at 20 µM: 79%

## CN(C)CCCN1c2ccccc2CCc2ccccc21 [Imipramine]
[2]; 72 h
  inhibition at 20 µM: 42%
[3]; Homo sapiens
  IC50: > 30 µM
[4]; Homo sapiens, HFF-1
  IC50: > 30 µM
[5]; Balamuthia mandrillaris
  IC50: > 30 µM

## 6-Nitroquinolone [compound 15]
[1]; [19]
  IC50: 189 µM

## O=[N+]([O-])c1cnc2ccccc2c1O [compound 19, 3-Nitro-4-quinolinol]
[1]; [17]
  IC50: 1320 µM

## Plicamycin
[2]
  % Inhibition: 45%
[3]
  IC50: < 0.06 µM
[4]
  IC50: < 0.06 µM
[5]; approximated from dose-response curves
  IC50: > 30 µM

## [H]/N=C(\N/C(=N/[H])NCCCCCCNC(=N)NC(=N)Nc1ccc(Cl)cc1)Nc1ccc(Cl)cc1 [Chlorhexidine]
[2]; 72 h
  inhibition at 20 µM: 64%

## Demecarium Bromide
[2]; [18]
  % Inhibition: 60%

## CO/N=C(\C(=O)N[C@@H]1C(=O)N2C(C(=O)O)=C(COC(N)=O)CS[C@H]12)c1ccco1 [Cefuroxime Sodium]
[2]; 72 h
  inhibition at 20 µM: 41%

## C[n+]1c2cc(N)ccc2cc2ccc(N)cc21 [Acriflavinium Hydrochloride]
[2]; 72 h
  inhibition at 20 µM: 33%

## CNC(=C[N+](=O)[O-])NCCSCc1ccc(CN(C)C)o1 [Ranitidine]
[2]; 72 h
  inhibition at 20 µM: 68%
[3]; Homo sapiens
  IC50: > 30 µM
[4]; Homo sapiens, HFF-1
  IC50: > 30 µM
[5]; Balamuthia mandrillaris
  IC50: > 30 µM

## CC(C)c1c(C(=O)Nc2ccccc2)c(-c2ccccc2)c(-c2ccc(F)cc2)n1CC[C@@H](O)C[C@@H](O)CC(=O)O [Atorvastatin]
[2]; 72 h
  inhibition at 20 µM: 40%
[3]; Homo sapiens
  IC50: > 30 µM
[4]; Homo sapiens, HFF-1
  IC50: > 30 µM
[5]; Balamuthia mandrillaris
  IC50: > 30 µM

## Cc1cc(-c2ccc(/N=N/c3ccc4c(S(=O)(=O)O)cc(S(=O)(=O)O)c(N)c4c3O)c(C)c2)ccc1/N=N/c1ccc2c(S(=O)(=O)O)cc(S(=O)(=O)O)c(N)c2c1O [Evans Blue]
[2]; 72 h
  inhibition at 20 µM: 74%

## Cc1cc(N)c2ccccc2[n+]1CCCCCCCCCC[n+]1c(C)cc(N)c2ccccc21 [Dequadin]
[2]; 72 h
  inhibition at 20 µM: 69%

## CC[C@H]1OC(=O)[C@H](C)[C@@H](O[C@H]2C[C@@](C)(OC)[C@@H](O)[C@H](C)O2)[C@H](C)[C@@H](O[C@@H]2O[C@H](C)C[C@H](N(C)C)[C@H]2O)[C@](C)(O)C[C@@H](C)CN(C)[C@H](C)[C@@H](O)[C@]1(C)O [Azithromycin]
[7]
  IC50: 788 µM
[8]
  CC50 at 72 h: 94.4 µM
[6]
  inhibition of amoebic growth: amoebicidal or amoebistatic activity
[9]
  CC50 at 72 h: 116 µM
[10]
  CC50 at 72 h: 95 µM
[11]
  IC50: 244 µM
[12]
  CC50 at 72 h: 120 µM
[13]
  CC50 at 72 h: 55 µM
[14]
  encystment response: no substantial number of cysts was observed at any concentration
[15]
  CC50 at 72 h: 86.4 µM

## Cc1ccc(O)c2ncccc12 [compound 7, 5-Methylquinolin-8-ol]
[1]; [16]
  IC50: 19.9 µM

## C[CH2][Hg][S]c1ccccc1C(=O)O [Ethylmercurithiosalicylic acid]
[2]; [18]
  % Inhibition: 107%

## Oc1ccc(Cl)cc1Cc1cc(Cl)ccc1O [Dichlorophene, Dichlorophen, Dichlorophene]
[2]; 72 h
  inhibition at 20 µM: 42%

## c1cnc2c(c1)ccc1cccnc12 [compound 14, 1,10-Phenanthroline]
[1]; [17]
  IC50: 15.9 µM
[1]
  activity against B. mandrillaris: demonstrated activity against B. mandrillaris

## Oc1cccc2cccnc12 [compound 2, 8-Hydroxyquinoline]
[1]; [16]
  IC50: 30.5 µM

## OC(Cn1cncn1)(Cn1cncn1)c1ccc(F)cc1F [fluconazole]
[6]
  inhibition of amoebic growth: little to no inhibition

## O=[N+]([O-])c1cccc2ncccc12 [compound 3, 5-Nitroquinoline]
[1]; [16]
  IC50: 82.7 µM

— publication PMC6212833 (mBio, 2018)
